Laboratory results published in paper PMC5025780, “Copper(II) ions affect the gating dynamics of the 20S proteasome: a molecular and in cell study” (Scientific Reports, 2016).

Legend:
Assay type in all cases: biochemical
[1] = target: T1, human 20S proteasome (hCP), T-L activity; experiment: T-L peptidase activity of isolated hCP (fluorogenic substrate); settings: hCP 2 nM, 1 h preincubation with ions, Tris 25 mM pH 7.6, 37 °C, no SDS; read-out: IC50 T-L
T1 construct: purchased Boston Biochem (Cambridge, MA, USA)
Source text: (§1) Purified human 20S proteasome (hCP) and the fluorogenic substrates Suc-LLVY-AMC, Z-Leu-Leu-Glu-AMC, and Ac-Arg-Leu-Arg-AMC used to assay the ChT-L, T-L, and C-L activity, were from Boston Biochem (Cambridge, MA, USA). Bathocuproinedisulfonic acid disodium salt (BCS), dithiothreitol (DTT), N-Acetyl-L-Cysteine (NAC), Sodium dodecylsulphate (SDS) as well as CuCl2 and Zn(NO3)2 were from Sigma-Aldrich (St. Louis, MO). Proteasome inhibitors Epoxomicin were obtained from Enzo Life Science. Wild type 20S proteasome isolated from Saccharomices Cerevisiae (yCP) and a mutant (α3ΔN) where nine residues of the N-terminal tail of the α3 subunit are deleted to provide a permanently open-gate conformations were isolated as described elsewhere.
(§2) Peptidase activities of hCP (2 nM) were assayed on in 50 μL Tris 25 mM pH 7.6, at 37 °C with 100 μM of the fluorogenic substrate. hCP was incubated with Cu(II)/Zn(II) ions for 1 h prior activity assays. The fluorescence signal activated by peptide cleavage was recorded at 440 nm (excitation at 360 nm) for 45 min, by a Varioskan (Thermo^©) plate reader in 384 multiwell plates. Three replicates were performed for each data point. Data were reported as normalized percentages of residual activity. The potency (IC50) was calculated from the value of the dose response plot corresponding at a fractional activity of 50%. The IC50 values were determined using a non linear fit of experimental data in according to equation: […]
(§3) The midpoint of this function occurs at a fractional activity value of 50%, corresponding to half inhibition of the target enzyme. The IC50 values and their standard errors were deduced from the fitting. To evaluate if copper is a reversible PI, we measured the ChT-L activity of hCP incubated with Cu(II) (2.20 μM) before and after addition of an equimolar amount of EDTA.

[2] = target: T2, human 20S proteasome (hCP), C-L activity; experiment: C-L peptidase activity of isolated hCP (fluorogenic substrate); settings: hCP 2 nM, 1 h preincubation with ions, Tris 25 mM pH 7.6, 37 °C, no SDS; read-out: IC50 C-L
T2 construct: purchased Boston Biochem (Cambridge, MA, USA)
Source text: as §1, §2, §3

[3] = target: T3, human 20S proteasome (hCP); experiment: Peptidase activities of isolated hCP, all three (ChT-L, T-L, C-L); settings: T-L and C-L of hCP, no SDS, read-out: IC50 values, range over the three peptidase activities
T3 construct: purchased Boston Biochem (Cambridge, MA, USA)
Source text: as §1
as §2, with “The potency (IC50) was calculated from the value of the dose response plot corresponding at a fractional activity of 50%.” left out

[4] = target: T4, human 20S proteasome (hCP), ChT-L activity; experiment: ChT-L peptidase activity of isolated hCP (Suc-LLVY-AMC fluorogenic substrate); settings: hCP 2 nM, 1 h preincubation with ions, Tris 25 mM pH 7.6, 37 °C, no SDS; read-out: IC50 ChT-L
T4 construct: purchased Boston Biochem (Cambridge, MA, USA)
Source text: as §1, §2, §3

O=[N+]([O-])[O-].O=[N+]([O-])[O-].[Zn+2] [Zn(II), Zn(NO3)2, reference compound]
IC50 [1]: 4.16 µM | IC50 [2]: 5.84 µM | IC50 [3]: 4.16 to 5.99 µM | IC50 [4]: 5.99 µM
